Among the data in patent US9307764B2, “Pesticidal diaryl—heterocyclyl derivatives” (BAYER INTELLECTUAL PROPERTY GMBH, priority 2011, dated 2016) are acaricidal ratio and pesticidal ratio values, retold here.

What all share (assay type): in vivo
The test system of assay [1] is Tetranychus urticae. Briefly: Biological Test Example 1: Test on Tetranychus urticae (spray on Egyptian bean leaves). As to conditions: 100 ppm effective component concentration, adult mites, seven days later. Here is the method: (§1) Unless other methods are mentioned specifically, the sample solution preparation was prepared as follows.
(§2) Solvent: 3 parts by weight of dimethyl formamide
(§3) Emulsifier: 1 part by weight of polyoxyethylene alkyl phenyl ether
(§4) To prepare a suitable concoction including the active compound, 1 part by weight of the active compound was mixed with the above amount of the solvent containing the above amount of the emulsifier, and the resulting mixture was diluted with water to predetermined concentrations.
50 to 100 of adult Tetranychus urticae were inoculated to leaves at 2-leaf stage of Egyptian bean planted in pots of 6 cm in diameter, to which, 1 day later, the above prepared water diluted solution of the active compound at the predetermined concentration was sufficiently sprayed with a spray gun. After the compounds were sprayed, the pots were left in a greenhouse and the acaricidal ratio was calculated seven days later. 100% acaricidal ratio means death of all the mites, while 0% acaricidal ratio means none of the mites were dead.

Assay [2] relates to Aulacophora femoralis. The assay is described as follows: Biological Test Example 2: Test on Aulacophora femoralis (cucumber leaf immersion). As to conditions: 100 ppm effective component concentration, 2nd-instar larvae, seven days later, 25° C. Here is the method: as §1, §2, §3, §4
Leaves of cucumbers were immersed in the water-diluted solution containing the active compound at the predetermined concentration which was prepared above and, after the solution was air-dried, the resultant leaves were put onto sterilized black soil in a plastic cup, into which five of the 2nd-instar larvae of Aulacophora femoralis were then released. The cup was covered with a lid and maintained in a temperature controlled room at 25° C. having humidity of 50 to 60%. Seven days later, the number of dead larvae was counted to calculate the pesticidal ratio. 100% pesticidal ratio means death of all the larvae, while 0% pesticidal ratio means no dead larvae.

Assay [3] has as its system Spodoptera litura. The assay is described as follows: Biological Test Example 3: Test on larvae of Spodoptera litura (method using artificial feeds). As to conditions: 100 ppm effective component concentration, 3rd-instar larvae, after 7 days, 25° C. Here is the method:
as §1, §2, §3, §4
Powdery artificial feeds (trade name: SILK MATE, manufactured by Nihon Nosan Kogyo, Japan, 2.3 g) were added to a plastic cup (diameter: 7.5 cm, height: 4 cm) to achieve a certain thickness. Water-diluted liquid (5 mL) of the active compound prepared above having predetermined concentration was evenly poured thereto and allowed to stand until the feeds are solidified. Five of the 3rd-instar larvae of Spodoptera litura were released in each cup, and covered with a lid. The cups were put in a temperature controlled room at 25° C. having humidity of 50 to 60%, and the number of dead larvae after 7 days was determined to calculate the pesticidal ratio. 100% pesticidal ratio means death of all the larvae, while 0% pesticidal ratio means no dead larvae.

Consider `CCC(=O)NCc1ccc(N2COC(c3cc(Cl)c(Cl)c(Cl)c3)(C(F)(F)F)C2)cc1C(F)(F)F` (centres unmarked) [Compound No. 1-17, N-{4-[5-(3,4,5-trichlorophenyl)-5-(trifluoromethyl)-1,3-oxazolidin-3-yl]-2-(trifluoromethyl)benzyl}propane amide], for which, in assay [1], the acaricidal ratio is 100%. Moreover, the pesticidal ratio in assay [2] and in assay [3] was 100% throughout.
On to `CCC(=O)NCc1ccc(N2CC(c3cc(Cl)c(Cl)c(Cl)c3)(C(F)(F)F)OS2=O)cc1C(F)(F)F` (centres unmarked) [3-17, N-{4-[2-oxide-5-(3,4,5-trichlorophenyl)-5-(trifluoromethyl)-1,2,3-oxathiazolin-3-yl]-2-(trifluoromethyl)benzyl}propane amide], for which the pesticidal ratio in assay [2] and in assay [3] was 100% in each case.
Regarding `CCC(=O)NCc1ccc(N2CC(c3cc(Cl)c(Cl)c(Cl)c3)(C(F)(F)F)OS2(=O)=O)cc1C(F)(F)F` (centres unmarked) [5-17, N-{4-[2,2-dioxide-5-(3,4,5-trichlorophenyl)-5-(trifluoromethyl)-1,2,3-oxathiazolin-3-yl]-2-(trifluoromethyl)benzyl}propane amide], in assay [1], the acaricidal ratio was found to be 100%. The pesticidal ratio in assay [2] and in assay [3] was 100% each time.
